# From paper PMC7415757, “Monocrotaline-induced liver toxicity in rat predicted by a combined in vitro physiologically based kinetic modeling approach” (Archives of Toxicology, 2020)
# Like-named read-outs stand apart in the source and are kept apart here.
# Experiments:
# [1] = design: method as in Lester et al. ([2019]); details: ref Lester et al. ([2019]); cited from earlier work
# [2] = Reported blood kinetics after iv [14C] monocrotaline (Estep et al. 1991); format: in vivo; details: rat, iv 60 mg/kg bw, from Estep et al. 1991
# Method: The reported concentration nmol/g is assumed to be equal to nmol/ml or µM. The reported blood concentration is calculated as the sum of the plasma and RBC concentration.
# [3] = design: method as in Estep et al. 1991; details: rat, iv 60 mg/kg bw, ref Estep et al. 1991, cited from earlier work
# [4] = tested on: human liver cell line HepaRG; details: in vitro γH2AX induction potency, ref Louisse et al. ([2019]); cited from earlier work
# [5] = Substrate depletion in incubations with pooled rat liver microsomes; format: in vitro ADME, rat (Sprague–Dawley)
# Method: After 5 min of pre-incubation in a shaking water bath at 37 °C, the reactions were started by the addition of 1 mM NADPH. The reactions were carried out for 1 h and 2 h for liver and intestinal microsomes, respectively. For each incubation, a corresponding control incubated in the absence of NADPH was included by adding buffer instead of NADPH. To stop the metabolic conversion, 100 µl of ice-cold methanol was added and the sample was put on ice, then centrifuged at 5000 × g for 20 min at 4 °C using a microcentrifuge (CT15RE, VWR, Leuven, Belgium). Supernatants were diluted 200 times in 90% (v/v) acetonitrile and transferred to LC–MS vials. LC–MS analysis was performed using a Shimadzu Nexera XR LC-20AD SR UPLC system in tandem with a Shimadzu LCMS-8040 mass spectrometer (Shimadzu, Kyoto, Japan). From each incubation, 1 µl of supernatant was loaded onto a Luna Omega polar C18 100A LC column (1.6 µm 100 × 2.1 mm, Phenomenex) fitted with a FP polar precolumn (Phenomenex), using a flow rate of 0.3 ml/min. The temperature was set at 40 °C and 5 °C for column and sample, respectively. The mobile phase consisted of ultrapure water (solvent A) and acetonitrile (solvent B) both containing 0.1% (v/v) formic acid. The gradient began with 100% solvent A (0% B) for 1 min to wash away unwanted salts, followed by a linear gradient from 0 to 5% B till 8 min and a further increase to 100% B in 2 min, keeping the elution at 100% B for 0.5 min, then the column was set back to the starting conditions and equlibrated for 3.4 min before the next injection. […] For all incubations, three independent replicates were performed.
# The ratio of Vmax and Km was calculated as the in vitro catalytic efficiency (kcat) expressed in […]. […] The rat liver weight of 8.5 g and small intestine weight of 3.5 g (see Table 1) (Brown et al. [1997]) were used to scaled the in vivo kcat values to values expressed in ml/min/tissue.
# [6] = liver, 35 mg microsomal protein/g liver, present study
compound,measurement,setting,value
C[C@H]1C(=O)O[C@@H]2CCN3CC=C(COC(=O)[C@](C)(O)[C@]1(C)O)[C@H]23 [Monocrotaline],metabolic stability,[1],metabolically stable
same,"Reported concentration of monocrotaline equivalents, blood (plasma + RBCs)",[2]; 5 min,257.00 µM
same,"Reported concentration of monocrotaline equivalents, blood (plasma + RBCs)",[2]; 15 min,195.34 µM
same,"Reported concentration of monocrotaline equivalents, blood (plasma + RBCs)",[2]; 30 min,167.41 µM
same,"Reported concentration of monocrotaline equivalents, blood (plasma + RBCs)",[2]; 60 min,149.97 µM
same,"Reported concentration of monocrotaline equivalents, blood (plasma + RBCs)",[2]; 120 min,134.54 µM
same,"Reported concentration of monocrotaline equivalents, blood (plasma + RBCs)",[2]; 180 min,121.75 µM
same,"Reported concentration of monocrotaline equivalents, blood (plasma + RBCs)",[2]; 240 min,116.71 µM
same,"Reported concentration of monocrotaline equivalents, blood (plasma + RBCs)",[2]; 300 min,92.88 µM
same,"Reported concentration of monocrotaline equivalents, blood (plasma + RBCs)",[2]; 360 min,97.66 µM
same,"Reported concentration of monocrotaline equivalents, blood (plasma + RBCs)",[2]; 420 min,92.00 µM
same,"Reported concentration of monocrotaline equivalents, RBCs",[3]; 5 min,144.00 µM
same,"Reported concentration of monocrotaline equivalents, plasma",[3]; 5 min,113.00 µM
same,"Reported concentration of monocrotaline equivalents, RBCs",[3]; 15 min,113.46 µM
same,"Reported concentration of monocrotaline equivalents, plasma",[3]; 15 min,81.88 µM
same,"Reported concentration of monocrotaline equivalents, RBCs",[3]; 30 min,100.06 µM
same,"Reported concentration of monocrotaline equivalents, plasma",[3]; 30 min,67.35 µM
same,"Reported concentration of monocrotaline equivalents, RBCs",[3]; 60 min,100.13 µM
same,"Reported concentration of monocrotaline equivalents, plasma",[3]; 60 min,49.84 µM
same,"Reported concentration of monocrotaline equivalents, RBCs",[3]; 120 min,104.89 µM
same,"Reported concentration of monocrotaline equivalents, plasma",[3]; 120 min,29.65 µM
same,"Reported concentration of monocrotaline equivalents, RBCs",[3]; 180 min,99.93 µM
same,"Reported concentration of monocrotaline equivalents, plasma",[3]; 180 min,21.82 µM
same,"Reported concentration of monocrotaline equivalents, RBCs",[3]; 240 min,99.60 µM
same,"Reported concentration of monocrotaline equivalents, plasma",[3]; 240 min,17.11 µM
same,"Reported concentration of monocrotaline equivalents, RBCs",[3]; 300 min,79.81 µM
same,"Reported concentration of monocrotaline equivalents, plasma",[3]; 300 min,13.07 µM
same,"Reported concentration of monocrotaline equivalents, RBCs",[3]; 360 min,85.50 µM
same,"Reported concentration of monocrotaline equivalents, plasma",[3]; 360 min,12.16 µM
same,"Reported concentration of monocrotaline equivalents, RBCs",[3]; 420 min,81.00 µM
same,"Reported concentration of monocrotaline equivalents, plasma",[3]; 420 min,11.00 µM
same,potency group,[4],group 3
same,Km,"[5]; Sprague-Dawley, rat, pH 7.4, liver, present study",9.2 µM
same,"scaled liver kcat, times lower than lasiocarpine",[5]; liver,41.8 times
same,"scaled liver kcat, times lower than riddelliine",[5]; liver,4.3 times
same,Scaled kcat,"[5]; liver weight 8.5 g, present study",1.9 ml/min/ tissue
same,Scaled Vmax,[5]; [6],2.1 nmol/min/g tissue
same,Scaled kcat,[5]; [6],0.2 ml/min/g tissue
same,"KmLM1, affinity constant","[5]; liver, PBK model code",9.22 µmol/L
same,"VmaxLM1c, unscaled maximum rate of metabolism","[5]; liver, PBK model code",0.06 nmol/min-1/mg protein
same,Vmax,"[5]; liver, present study",0.06 nmol/min/mg microsomal protein
